Legend:
P. gingivalis = experiment: Trafficking of P. gingivalis to lysosomes in human coronary arterial endothelial cells (HCAEC); format: cell-based, Porphyromonas gingivalis; settings: HCAEC exposed to P. gingivalis; replicative vacuole in untreated cells
Excerpt: FIGS. 7A-7D. The inhibition of autophagy by AI-1 and AI-2 results in the trafficking of P. gingivalis to lysosomes. Human coronary arterial endothelial cells (HCAEC) were exposed to P. gingivalis (Pg) in the absence (FIG. 7A) and presence of 3-methyladenine (3MA) (FIG. 7B) and compounds AI-1 (FIG. 7C) and AI-2 (FIG. 7D).
We have previously shown that autophagy is required for P. gingivalis to thrive within host endothelial cells (Dorn, B. R., Dunn, W. A., Jr., and Progulske-Fox, A. “Porphyromonas gingivalis traffics to autophagosomes in human coronary artery endothelial cells” Infect Immun, 2001, Vol. 69, pp. 5698-5708). In fact, in the absence of autophagy, this bacterium fails to form a “replicative vacuole” and is instead transported to lysosomes where the bacterium is destroyed by digestive enzymes. We then tested the efficacy of AI-1 and AI-2 to promote the intracellular movements of this intracellular pathogen to the destructive lysosomes.

[1] = test system: Saos-2 osteosarcoma and MDA-MB468 breast carcinoma cell lines; experiment: GFP-Atg8 labeled autophagic vacuoles in nutrient-starved cells stably expressing GFP-Atg8; format: cell-based; settings: starved Saos-2 cells, FIG. 2
Protocol: FIGS. 2A-2D. Atg-4-targeted drugs decreased the number of Atg8 (LC3)-labeled autophagic vacuoles. Saos-2 osteosarcoma and MDA-MB468 breast carcinoma cells stably expressing GFP-Atg8 were incubated under nutrient fed and starved (St) conditions in the presence and absence of AI-1 and AI-2. The presence GFP-Atg8 labeled autophagic vacuoles appear as dots (arrows) in starved Saos-2 cells (FIG. 2B). Atg8-labeled vacuoles are not observed in fed Saos-2 cells or starved cell treated with AI-1. Almost 70% of the starved cells contained autophagic vacuoles. However, the number of starved cells containing autophagic vacuoles was dramatically reduce upon treatment with AI-1 and AI-2 (FIG. 2D; n=number of cells counted). The Atg4 compounds were obtained from the National Cancer Institute (NCI) and then tested for their ability to suppress autophagy by observing the presence of autophagosomes in Saos-2 osteosarcoma and MDA-MB468 breast carcinoma cell lines stabling expressing Atg8 tagged with a green fluorescent protein (GFP-Atg8). Upon the onset of autophagy, Atg8 becomes lipidated being anchored to the autophagosome membrane whereby this protein then recruits additional membranes for expanding the size of the vacuoles and thus, regulating the degradative amplitude of autophagy. […]

[2] = test system: breast carcinoma MDA-MB468 cells; experiment: Survival of nutrient-starved cells, crystal violet staining; format: cell-based; settings: MDA-MB468, nutrient-deprived serum-free medium, 24 hours
Protocol: (§1) FIGS. 6A-B. Atg-4-targeted drugs decrease cell survival of nutrient deprived cancer cells. Control breast epithelial MCF10A, MDA-MB 468 breast carcinoma, Saos2 osteosarcoma, and HuH7 hepatoma were incubated under nutrient fed and starved conditions in the presence and absence of AI-1 and AI-2. The number of viable cells on the plate relative to fed after 24 hrs was quantified by crystal violet staining. Bars=mean±SEM, n=4-6 trials.
(§2) During the early stages of tumor growth prior to vascularization, cancer cells are exposed to conditions lacking nutrients and growth factors. These cells are able to survive these conditions by activating autophagy, thereby degrading endogenous macromolecules and recycling the nutrients. In order to simulate these conditions in vitro, we have incubated cells in the absence of amino acids and serum. Approximately 65-75% of the normal and cancer cell lines tested survived when exposed to nutrient-deprived serum-free medium for 24 hours.

[3] = test system: Saos-2 osteosarcoma cells; experiment: as above; format: cell-based; settings: Saos-2, nutrient-deprived serum-free medium, 24 hours
Protocol: as §1, §2

[4] = test system: normal breast epithelial cells (MCF10A); experiment: as above; format: cell-based; settings: nutrient-deprived serum-free medium, 24 hours
Protocol: as §1, §2

HuH7 hepatoma cells = experiment: as above; format: cell-based; settings: HuH7, nutrient-deprived serum-free medium, 24 hours
Protocol: as §1, §2

Atg8 (LC3) = experiment: Lipidation of Atg8 (Atg8-PE) by Western blotting in starved Saos-2 cells; format: cell-based; settings: Saos-2 cells expressing GFP-Atg8 starved for amino acids for 2-6 h
Excerpt: (§3) FIG. 3. Atg-4-targeted compounds suppress the lipidation of Atg8 (LC3) in Saos-2 osteosarcoma cells. The lipidation of Atg8 (Atg8-PE) was examined by Western blotting in fed and starved (medium lacking amino acids and serum) cells and in starved cells treated with 3-methyladenine (3MA), AI-1 and AI-2. The Atg4 compounds were obtained from the National Cancer Institute (NCI) and then tested for their ability to suppress autophagy by observing the presence of autophagosomes in Saos-2 osteosarcoma and MDA-MB468 breast carcinoma cell lines stabling expressing Atg8 tagged with a green fluorescent protein (GFP-Atg8). Upon the onset of autophagy, Atg8 becomes lipidated being anchored to the autophagosome membrane whereby this protein then recruits additional membranes for expanding the size of the vacuoles and thus, regulating the degradative amplitude of autophagy. […] Compared to 70% of the starved cells containing autophagic vacuoles, less than 20% of those starved cells treated with AI-1 or AI-2 contained these vacuoles. These observations were consistent with the negative effects of these compounds on the lipidation of Atg8 (FIG. 3). Saos-2 cells expressing GFP-Atg8 were starved for amino acids for 2-6 h in the absence and presence of 3-methyladenine and the Atg4 compounds. […]

[5] = test system: Saos-2 and MDA-MB468 cells; experiment: Starvation induced (autophagy-mediated) protein degradation, pulse-chase with 14C-leucine; format: cell-based; settings: starved cells, FIG. 4
Protocol: FIG. 4. Atg-4-targeted drugs suppress starvation induced (autophagy-mediated) protein degradation. Saos-2 and MDA-MB468 cells were incubated under nutrient fed and starved conditions in the presence and absence of 3-methyladenine (3MA), AI-1 and AI-2 and the rates of protein degradation measure by pulse-chase methodology with 14C-leucine. Bars=mean±SEM. n=4-6 trials. The Atg4 compounds were obtained from the National Cancer Institute (NCI) and then tested for their ability to suppress autophagy by observing the presence of autophagosomes in Saos-2 osteosarcoma and MDA-MB468 breast carcinoma cell lines stabling expressing Atg8 tagged with a green fluorescent protein (GFP-Atg8). Upon the onset of autophagy, Atg8 becomes lipidated being anchored to the autophagosome membrane whereby this protein then recruits additional membranes for expanding the size of the vacuoles and thus, regulating the degradative amplitude of autophagy. […] Compared to 70% of the starved cells containing autophagic vacuoles, less than 20% of those starved cells treated with AI-1 or AI-2 contained these vacuoles. These observations were consistent with the negative effects of these compounds on the lipidation of Atg8 (FIG. 3). Saos-2 cells expressing GFP-Atg8 were starved for amino acids for 2-6 h in the absence and presence of 3-methyladenine and the Atg4 compounds. […]

MDA-MB468 cells = experiment: Size and distribution of autophagic vacuoles by electron microscopy; format: cell-based; settings: starved MDA-MB468 cells
Protocol: FIGS. 5A-5D. Atg-4-targeted drugs reduce the size of autophagic vacuoles. MDA-MB468 cells were incubated under nutrient fed (FIG. 5A) and starved (medium lacking amino acids and serum; FIG. 5B) conditions in the presence and absence of AI-1 (FIG. 5C) and AI-2 (FIG. 5D), Autophagic vacuoles (arrows) were visualized by electron microscopy. The “black” reaction product of CMPase, a lysosomal enzyme, can be seen within small lysosomes, many larger autophagic vacuoles (arrows) as well as the Golgi apparatus (Go).
as §3, with “The” for “FIG. 3. Atg-4-targeted compounds suppress the lipidation of Atg8 (LC3) in Saos-2 osteosarcoma cells. The lipidation of Atg8 (Atg8-PE) was examined by Western blotting in fed and starved (medium lacking amino acids and serum) cells and in starved cells treated with 3-methyladenine (3MA), AI-1 and AI-2. The”, “3).” for “3). Saos-2 cells expressing GFP-Atg8 were starved for amino acids for 2-6 h in the absence and presence of 3-methyladenine and the Atg4 compounds.”

Q: How did the “location and state of intracellular P. gingivalis” value (P. gingivalis) turn out when `Cn1cnc(N)c2ncnc1-2` [3-methyladenine, reference compound] was run?
A: Its value is “partially degraded bacteria were found in CMPase-positive lysosomes”.

Q: How did the Atg8-labeled vacuoles observed [1] turn out when `S=C(Nc1ccccn1)c1ccccn1` [AI-1, N-2-pyridinyl-2-pyridinecarbothioamide] was run?
A: The Atg8-labeled vacuoles observed was “not observed”.

Q: What about the “survival of nutrient-starved cells” value [2] of the same compound?
A: The value was “less than 40%”.

Q: And the “survival of nutrient-starved cells” value [3]?
A: The value was “moderate activity”.

Q: What about the “survival of nutrient-starved cells” value [4] of the same compound?
A: The value was “only moderately affected”.

Q: And the “survival of nutrient-starved cells” value (HuH7 hepatoma cells)?
A: The value was “moderate activity”.

Q: And the “lipidation of Atg8 (Atg8-PE)” value (Atg8 (LC3))?
A: Its value is “inhibiting the lipidation of Atg8 (LC3)”.

Q: What about the “degradation of endogenous proteins” value [5] of the same compound?
A: The value was “reduction in the degradation of endogenous proteins”.

Q: What about the “location and state of intracellular P. gingivalis” value (P. gingivalis) of the same compound?
A: Its value is “bacteria in various degraded states were observed in CMPase-positive lysosomes”.

Q: What does the source list for `CC(C)OC(=O)Nc1ccc2nc(-c3cscn3)[nH]c2c1` [AI-2, cambendazole]?
A: distribution of autophagic vacuoles (MDA-MB468 cells): dramatic redistribution of the autophagic vacuoles to a centralized region of the cell; survival of nutrient-starved cells [4]: only moderately affected; survival of nutrient-starved cells (HuH7 hepatoma cells): 30 % of controls; lipidation of Atg8 (Atg8-PE) (Atg8 (LC3)): inhibiting the lipidation of Atg8 (LC3); degradation of endogenous proteins [5]: reduction in the degradation of endogenous proteins; location and state of intracellular P. gingivalis (P. gingivalis): bacteria in various degraded states were observed in CMPase-positive lysosomes
